Source: US8580557B2, “Casein hydrolyzate, process for producing the same and use thereof” (Calpis Co., Ltd., priority 2003, dated 2013)

System: spontaneously hypertensive rats (SHR)
Assay: Hypotensive effect after oral administration, tail-cuff method
Assay type: in vivo, rat
Settings: SHR (male), 32 mg/kg body weight, 5 hours after administration vs before
Method: Each of the casein hydrolysate powders prepared in Example and Comparative Examples shown in Table 1 were administered orally to five 27-week-old spontaneously hypertensive rats (SHR) (male) at a dose of 32 mg/kg body weight. Blood pressure was measured before the administration and 5 hours after the administration by tail-cuff method with Tail-cuff PB-98 (manufacture by SOFTRON) to evaluate the change in blood pressure. As a control, casein was administered instead of the powders, and the same evaluation was made. Before the measurement of blood pressure, rats were warmed in a preheat box (manufactured by CSI JAPAN) at 45° C. for 8 minutes.
Further, in accordance with the above method, a dose-dependent hypotensive effect was tested using the casein hydrolysate powders prepared in Example 1.

casein [Control]
Blood pressure drop (average ± SD): −2.5 ± 7.5
Blood pressure drop (average ± SD) (listed as casein): no change in blood pressure was observed
